Consider eight molecules from paper PMC10439028, “SGLT5 is the renal transporter for 1,5-anhydroglucitol, a major player in two rare forms of neutropenia” (Cellular and Molecular Life Sciences: CMLS, 2023).

What all share (assay type): cell-based
Data set [1] has as its target T1, SGLT5-TM (S70N–E71I–L75H) (Homo sapiens, UniProt A0PJK1, E71I/L75H/S70N).
T1 construct: pUB83-hSGLT5-iso2 as well as the various SGLT5 mutants obtained were used to transduce HEK293T cells; expressed in transfected cells; host or cells: HEK293T, lentiviral transduction (pUB83)
The data set is described as follows: Inhibition of 10 µM 1,5-AG transport by triple mutant SGLT5-TM (S70N-E71I-L75H). The conditions noted are these: versus wild-type SGLT5, competition experiments, Supplementary Fig. 7. The procedure:
(§1) The transport experiments to study the specificity of SGLT4 or SGLT5, were performed in the presence of 10 µM U-[^14C + ^12C]-mannose (for SGLT4) or 2-[^3H + ^1H]-1,5-AG (for SGLT5) and increasing concentrations of various sugars tested. The transport experiments to study the inhibition of empagliflozin, dapagliflozin or remogliflozin, on the transport of 1,5-AG by SGLT5 or its variants were performed in the presence of 10 µM 2-[^3H + ^1H]-1,5-AG and increasing concentrations of the various gliflozins tested.
SGLT5 mutants were created using the quick-change site directed mutagenesis method that enables effective mutagenesis without subcloning of the amplified PCR products. Complementary primer pairs carrying the desired replacements (Supplementary Table 3) were designed using an online tool (https://www.agilent.com/store/primerDesignProgram.jsp). The PCR protocol was carried out following the manufacturer instructions regarding the KOD HOT Start polymerase kit (TOYOBO™, Novagen). The amplified DNA was cleaned-up from the reactions constituents using the GeneJET PCR purification Kit (Thermo Scientific™) and the size of the DNA fragment were verified by DNA agarose-gel electrophoresis. After eliminating the parental DNA by digesting the purified DNA with the DpnI restriction enzyme, the DNA fragments containing the appropriate changes were transformed in E. coli NEB Turbo competent cells (C2984H). Once colonies were obtained, plasmid DNA was finally amplified, purified and sequenced to verify that the required changes had been introduced and eliminate any PCR errors. Next, pUB83-hSGLT5-iso2 as well as the various SGLT5 mutants obtained were used to transduce HEK293T cells using the exact same protocol as described above to create model cell lines overexpressing the different SGLT5 transporters.
Supplementary Fig. 7: Substrate specificity of SGLT5 - impact of replacing specific and conserved substrate binding residues in human SGLT5 by the equivalent ones in […]
When shown, the IC50 values are derived from inhibition curves showing the transport activity of 1,5-AG by the indicated SGLT5 mutants. Values show the concentration needed of the various sugars to inhibit by 50% the transport activity of 10 µM 2-[1H+3H]-1,5-AG. When the inhibition was too weak to derive IC50 values, the inhibition of the transport of 1,5-AG with the indicated concentration of the inhibitor-sugar is shown. Of note, despite having a lower […]
µM). These apparently contradictory changes are not necessarily surprising: in the case of enzymes, there are multiple examples of mutations that, at the same time, increase the apparent affinity (decrease the Km) of an enzyme for its substrate while decreasing the Vmax.
Measurement of transport activities and the description of the structures of the various inhibitory sugars used are as in Fig. 3C. Data corresponds to n = 3 in at least 2 independent […]
(1 picture or pasted object on this page, not shown here)

Data set [2] addresses T2, human SGLT4 (Homo sapiens, UniProt Q2M3M2).
T2 construct: expressed in transfected cells
T2 sequence (Q2M3M2 1-681): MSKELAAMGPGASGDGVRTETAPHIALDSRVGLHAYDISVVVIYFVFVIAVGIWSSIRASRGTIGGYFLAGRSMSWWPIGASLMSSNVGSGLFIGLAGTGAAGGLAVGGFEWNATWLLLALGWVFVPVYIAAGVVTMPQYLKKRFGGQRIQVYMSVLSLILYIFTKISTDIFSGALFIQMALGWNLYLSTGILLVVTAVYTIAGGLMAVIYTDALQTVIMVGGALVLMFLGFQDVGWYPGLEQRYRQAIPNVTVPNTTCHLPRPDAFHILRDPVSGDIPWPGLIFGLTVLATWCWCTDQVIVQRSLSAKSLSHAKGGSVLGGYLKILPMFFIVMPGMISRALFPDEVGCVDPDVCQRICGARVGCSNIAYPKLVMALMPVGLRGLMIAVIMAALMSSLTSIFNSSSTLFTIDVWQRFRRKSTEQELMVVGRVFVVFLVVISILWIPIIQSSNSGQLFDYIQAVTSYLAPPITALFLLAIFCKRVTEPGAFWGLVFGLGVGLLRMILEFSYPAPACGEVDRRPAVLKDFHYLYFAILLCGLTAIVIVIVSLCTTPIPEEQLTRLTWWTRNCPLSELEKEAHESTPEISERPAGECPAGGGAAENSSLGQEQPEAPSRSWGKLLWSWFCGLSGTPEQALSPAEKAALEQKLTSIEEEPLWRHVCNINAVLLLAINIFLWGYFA
The data set is described as follows: Inhibition of 10 µM radiolabelled mannose transport in HEK293T cells overexpressing human SGLT4. The conditions noted are these: for inhibition at 10000 µM: HEK-293T, read-out: hSGLT4 inhibition with 10 mM inhibitor. As to the method: (§2) For a typical transporter experiment we proceeded as follows. […] To minimize cell loss during the various washing steps in the radioactive uptake experiments, the wells where the cells were seeded were previously coated with poly- D-lysine, which improved their adhesion to the plastic surface of the wells. For this, each well of the 24-well plates was treated with 200 µl of a 0.01% poly-L-lysine solution for 10 min, washed 3 times with 1 ml of sterilized water and left to dry for 2 h. Only then could the 24-well plates be seeded with the appropriate cell lines and cultured overnight at 37 °C in 5% CO2.
(§3) On day two, the radioactive uptake assay could be performed. The cell culture media was removed by aspiration and cells were incubated for 20 min at 37 °C and 5% CO2 with a basal medium (10 mM HEPES, pH 7.4, 1 mM CaCl2, 1 mM MgCl2, 2 mM KCl) containing 140 mM choline chloride to deplete intracellular […] ions. This was subsequently replaced with the uptake medium (basal medium + 140 mM NaCl, 25 μM cytochalasin B, 1 mg/ml BSA) containing either radioactive U-[^14C]-mannose (15,000 cpm/well) or 2-[^3H]-1,5-AG (30,000 cpm/well) and respectively, non-radioactive mannose or 1,5-AG, at the required concentration in the experiment. Importantly, when measuring the transport of mannose, the uptake media also contained 0.5 mM glucose. This resulted from the need to reduce the background transport of mannose in control HEK293T cells in order to optimize the transport assay for this sugar in our model cell lines. Consequently, after testing various inhibitors (Supplementary Fig. 1), 0.5 mM glucose + 25 µM cytochalasin B appeared as the best combination to decrease efficiently the endogenous transport of mannose in control cells without affecting the transport of mannose in model cell lines overexpressing SGLT4 and SGLT5. Therefore in the radioactive uptake assays for mannose, the uptake medium was: basal uptake medium + 140 mM NaCl, 25 μM cytochalasin B, 0.5 mM glucose and 1 mg/ml BSA to which we added U-[^12C + ^14C]-mannose as described above.
(§4) Once the uptake medium was added to the cells, the plates were incubated at 37 °C in 5% CO2 during the required time. […] In each experiment, the transport activities were calculated after subtracting a “blank” value, corresponding to the radioactivity in the appropriate control cells (HEK293T cells that were stably or transiently transfected with one of the parent plasmids pEF6/MycHisA, pEF6HisB, pUB82 or pUB83 with no inserted cDNA) that were analyzed in parallel.
as §1

For data set [3], the target named is T3, human SGLT5 (Homo sapiens, UniProt A0PJK1).
T3 construct: expressed in transfected cells
T3 sequence (A0PJK1 1-596): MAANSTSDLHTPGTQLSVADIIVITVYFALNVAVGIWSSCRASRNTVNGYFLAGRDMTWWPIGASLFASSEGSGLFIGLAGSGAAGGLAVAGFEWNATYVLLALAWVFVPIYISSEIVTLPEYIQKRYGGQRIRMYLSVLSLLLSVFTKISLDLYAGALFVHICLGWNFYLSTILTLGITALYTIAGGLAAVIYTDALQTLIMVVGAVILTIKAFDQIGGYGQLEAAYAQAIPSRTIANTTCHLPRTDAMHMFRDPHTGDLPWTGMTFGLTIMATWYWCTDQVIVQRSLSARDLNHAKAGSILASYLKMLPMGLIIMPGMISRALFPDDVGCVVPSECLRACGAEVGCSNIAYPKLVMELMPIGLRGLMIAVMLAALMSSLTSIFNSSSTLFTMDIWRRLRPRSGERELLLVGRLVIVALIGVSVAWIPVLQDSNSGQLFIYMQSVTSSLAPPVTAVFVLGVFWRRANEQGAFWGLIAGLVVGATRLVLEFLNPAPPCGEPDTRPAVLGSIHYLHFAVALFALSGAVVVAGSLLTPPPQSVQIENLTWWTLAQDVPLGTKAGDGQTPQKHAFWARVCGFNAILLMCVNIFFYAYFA
The data set is described as follows: Inhibition of 10 µM radiolabelled 1,5-AG transport in HEK293T cells overexpressing human SGLT5. The procedure: as §2, §3, §4, §1

Substrate in data set [4]: OC[C@H]1OC[C@H](O)[C@@H](O)[C@@H]1O
The experiment in a line: Radioactive uptake assay (saturation kinetics) in HEK293T cells expressing mouse SGLT5. The conditions noted are these: other: 30 min, Supplementary Fig. 4; pH 7.4; 37.0 °C. The procedure: as §2
On day two, the radioactive uptake assay could be performed. […]
Once the uptake medium was added to the cells, the plates were incubated at 37 °C in 5% CO2 during the required time. […] In each experiment, the transport activities were calculated after subtracting a “blank” value, corresponding to the radioactivity in the appropriate control cells (HEK293T cells that were stably or transiently transfected with one of the parent plasmids pEF6/MycHisA, pEF6HisB, pUB82 or pUB83 with no inserted cDNA) that were analyzed in parallel. […]
Supplementary Fig. 4: Transport activities for 1,5-anhydroglucitol and mannose of recombinant mouse SGLT4 and SGLT5 isoforms measured in HEK293T cells. […]

Where [5] appears, read: 10 mM inhibitor, substrate 10 μM mannose.
Where [6] appears, read: substrate 10 μM 1,5-AG, unlabelled sugars, Fig. 3C, read-out: hSGLT5 IC50.
Setting [7] is: 10 µM 2-[1H+3H]-1,5-AG, Fig. 5C, read-out: IC50 for SGLT5-mediated 1,5-AG transport (gliflozins).

Where “and” joins values, the source holds several entries; their conditions need not be identical. Identical values can stand only once. Like-named read-outs stand apart in the source and are kept apart here.

T1 sequence (A0PJK1 whole entry S70N/E71I/L75H): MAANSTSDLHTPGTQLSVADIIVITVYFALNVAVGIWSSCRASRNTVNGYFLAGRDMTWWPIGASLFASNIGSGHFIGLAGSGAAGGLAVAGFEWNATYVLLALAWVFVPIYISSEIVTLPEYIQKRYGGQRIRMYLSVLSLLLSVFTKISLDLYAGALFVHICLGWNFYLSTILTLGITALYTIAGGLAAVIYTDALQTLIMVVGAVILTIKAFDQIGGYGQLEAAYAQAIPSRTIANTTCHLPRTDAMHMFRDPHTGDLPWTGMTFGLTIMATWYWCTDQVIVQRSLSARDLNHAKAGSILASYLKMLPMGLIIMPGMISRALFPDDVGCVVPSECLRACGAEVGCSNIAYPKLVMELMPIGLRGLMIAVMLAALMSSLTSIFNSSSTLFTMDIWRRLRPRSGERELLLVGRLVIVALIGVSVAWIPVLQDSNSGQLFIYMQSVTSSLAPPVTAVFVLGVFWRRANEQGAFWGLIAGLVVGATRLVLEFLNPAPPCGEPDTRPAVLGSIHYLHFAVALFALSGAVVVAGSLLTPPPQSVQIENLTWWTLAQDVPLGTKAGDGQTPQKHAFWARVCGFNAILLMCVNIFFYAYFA

For `O=C(CO)[C@@H](O)[C@H](O)[C@H](O)CO` [Fructose, fructose], the “loss of affinity of SGLT5-TM” value in data set [1] was “tenfold”. Further, the inhibition – broadly, the share of the control response that was lost under treatment – at 10000 µM in data set [2] (setting [5]) came out at 33%. For the same molecule, the IC50 (in general, the concentration that inhibits the measured activity by half) in data set [3] came out at 726 µM.
As for `OC[C@H]1OC[C@@H](O)[C@@H](O)[C@@H]1O` [1,5-AM, 1,5-anhydromannitol], the “loss of affinity of SGLT5-TM” value in data set [1] came to 250 fold. The “less affinity of SGLT4 compared to SGLT5” value in data set [2] (from Fig. 3C) was 200 fold. Also, the IC50 in data set [2] (substrate 10 μM mannose, Fig. 3C, read-out: hSGLT4 IC50) was 2300 µM. Besides, in data set [3] (SGLT5), the “preference for 1,5-anhydromannitol over 1,5-AG, difference in Ki” value is given as 12 fold and the “preference of 1,5-anhydromannitol over mannose, difference in Ki” value turned out to be 25 fold. Also, the IC50 in data set [3] (setting [6]) came to 13 µM.
In the case of galactose, the “gain of affinity of SGLT5-TM” value in data set [1] was determined as 30 fold. For the same molecule, the “hSGLT4 inhibition with 10 mM inhibitor” value in data set [2] (setting [5]) is recorded as 39%. The “hSGLT5 inhibition with 10 mM inhibitor” value in data set [3] (10 mM inhibitor, substrate 10 μM 1,5-AG) is listed as 10%.
Turning to `CCOc1ccc(Cc2cc([C@@H]3O[C@H](CO)[C@@H](O)[C@H](O)[C@H]3O)ccc2Cl)cc1` [dapagliflozin], the IC50 in data set [3] (setting [7]) came to 0.4 µM.
For `OC[C@H]1OC(O)[C@H](O)[C@@H](O)[C@@H]1O` (some centres unmarked) [Glucose, glucose], in data set [1], the “gain of affinity of SGLT5-TM” value came out at 30 fold. Further, in data set [2] (setting [5]), the inhibition at 10000 µM came to 20%. Besides, the IC50 in data set [3] (setting [6]) came out at 3650 µM.
Regarding `Cc1c(Cc2ccc(OC(C)C)cc2)c(O[C@@H]2O[C@H](CO)[C@@H](O)[C@H](O)[C@H]2O)nn1C(C)C` [remogliflozin], in data set [3] (setting [7]), the IC50 is 0.26 µM and 0.27 µM.
For the molecule `O=C1CO[C@H](CO)[C@@H](O)[C@@H]1O` [1,5-AF, 1,5-anhydrofructose], the inhibition at 10000 µM in data set [2] (setting [5]) was 44%. For the same molecule, in data set [3] (setting [6]), the IC50 worked out at 179 µM.

B1: mouse SGLT5 (Mus musculus) (protein)
chain: MAGNSTGDAHVPGSQLSVTDIIVISVYFALNVAVGIWSACRANKNTVSGYFLAGRDMAWWPIGASLFASSEGSGLFVGLAGSGAAGGLAVAGFEWNATYVLLALAWVFVPIYISSEIVTLPEYIQKRFGGQRIRTYLSVLSLMLSVFTKISIDLYAGALFVHICLGWNFYLSTILTLAITALYTIAGGLATVIYTDALQTIIMVVGAVILAVKAFNQIGGYEQLEAAYAQAIPSRTIPNTTCHLPRADAMHMFRDPSTGDLPWTGMTFGLTIMATWYWCTDQVIVQRSLSARNLNHAKAGSILASYLKMLPMGLMIMPGMISRVLFPDDVGCVVPSECLRACGAEIGCSNIAYPKLVMELMPIGLRGLMIAVMMAALLSSLTSIFNSSSTLFTMDIWRQLRPSAGERELLLVGRLVIVVLIGVSVAWIPVLQGSNSGQLFIYMQSVTSSLAPPVTAIFILGIFWRRANEQGAFWGLMAGLVVGALRLVLEFLYPEPPCGQIDTRPAPLRSLHYLHFAIALFLLTCAVMAAGSLLSPPPQQRQIENLTWWTLAPNWSLGTKTGDGQTPQKRAFWARVCNVNAIFLMCVNIFFYAYFA
notes: expressed in transfected cells; host or cells: HEK293T
Regarding B1, the Km (as a rule, the concentration of substrate that gives half-maximal velocity) in data set [4] was 500 µM.
